Patent US20050209104A1, “Dinoflagellate karlotoxins, methods of isolation and uses thereof” (priority 2002, published 2005)
Values after ≈ are worked out from the molar mass of the structure shown.

Legend:
[1] = test system: zebrafish (Danio rerio-60 days old); assay: Effect of KmTx 2 on fish (mortality and histology); format: in vivo
Experimental: Zebrafish (Danio rerio-60 days old) were exposed to 0.1, 0.5, 1, or 2 μg/ml KmTx 2 in 50 ml of aerated reconstituted fresh water (soft) [ASTM, 1992 #125]. Toxin dilutions were made in MeOH (200 μl max. per treatment) and controls were exposed to 200 μl MeOH only. Three fish were exposed per replicate, three replicates per treatment. […] Upon death, fish were preserved in neutral buffered formalin and prepared for histological examination as described in Noga 2000.

[2] = test system: Candida albicans (ATCC 14053); assay: Anti-fungal broth microdilution assay (yeast); format: cell-based; settings: lowest dose with no growth after 96 hours, 28° C.
Experimental: The following fungal strains were purchased from the American Type Culture Collection (Manassas, Va.), Aspergillus niger (ATCC 1004) as a representative filamentous fungi, and Candida albicans (ATCC 14053) as a representative yeast. Assays were performed according to the following National Committee for Clinical Laboratory Standards documents; M27-A2 Reference Method for Broth Dilution Antifungal Susceptibility Testing of Yeasts; Approved Standard—Second Edition([NCCLS, 2002), and M38-A Reference Method for Broth Dilution Antifungal Susceptibility Testing of Filamentous Fungi; Approved Standard (NCCLS, 2002). Procedures for the broth microdilution modification were followed for both species with the following exceptions; A. niger stocks were maintained on Potato Dextrose Agar at 25° C., while C. albicans was maintained on Yeast Malt Agar at 28° C., both according to ATCC recommendations. Amphotericin B was used as a positive control. Microdilution assays were performed in HyQ-RPMI-1640 media (HyClone, Logan, Utah.), with 2.05 mM L-glutamine, without sodium bicarbonate, pH 7.2 using dilutions of 1 mg/ml DMSO stocks of KmTx 2 and amphotericin B.
The following concentrations were tested for both KmTx2 and amphotericin B: 0.0625, 0.125, 0.25, 0.5, 1, 2, 4, 8, and 16 μg/ml. A maximum of 1.6% DMSO was added to any given well. Plates were incubated at 25 and 28° C., respectively, for A. niger and C. albicans. […] Amphotericin B and all culture media were purchased from Sigma-Aldrich (St. Louis, Mo.).

[3] = test system: Oxyrrhis marina; assay: Effect of KmTx 2 on a potential grazer; format: cell-based
Experimental: Oxyrrhis marina (1.7×10^4 cells/mil) and K. micrum (CCMP 2282) (3.5×10^4 cells/ml) were exposed, in triplicate, to 0, 0.1, 0.5, and 1 μg/ml KmTx 2 in six well non-tissue culture treated polystyrene plates (Becton Dickinson Labware, Lincoln Park N.J.). The O. marina culture was obtained through single cell isolation from a Chesapeake Bay water sample and was maintained in 15 psu artificial sea water (Instant Ocean Brand) using Rhodomonas sp. (CCMP 767) as a food source. O. marina was starved for 24 hours prior to exposures to reduce the number of food organisms. K. micrum (CCMP 2282) was maintained in 12 psu artificial sea water (Instant Ocean Brand) with f/2 nutrient mixture plus 1% soil extract as described in Deeds et al. (2002). Cell densities were measured at 1 and 24 hours using a Coulter Multisizer II particle counter by enumerating the 7-20 μm and the […] size fractions, respectively, for K. micrum and O. marina using a Coulter Accucomp software package (Coulter Electronics Limited, Miami Fla.). Significant differences (p<0.05) among mean cell numbers for different treatments were tested for using one-way analysis of variance with Scheffe's post hoc test using SPSS Base 10.0 statistical software (SPSS Inc., Chicago, Ill.).
Hemolytic activity remaining in solution was measured at 1 hour by mixing 100 μl of each treatment with an equal volume of diluted rainbow trout RBC suspension as described above in Example 3.

[4] = test system: rat ventricular cardiac myocytes; assay: Ion permeation measurement, Ca^2+ with fura-2 (cardiac myocyte); format: cell-based; settings: 60 seconds after application of 0.25 μg/ml

## C=C(CC[C@H](O)[C@H]1O[C@H](C[C@@H](O)[C@H](O)[C@H](C)CCC[C@@H](O)[C@H](O)[C@H](O)[C@@H](C)CC[C@@H](O)[C@H](O)[C@H](C)C[C@@H](O)CCC[C@@H](O)CCC[C@@H](O)/C=C/C[C@@H](O)CO)[C@@H](O)[C@@H](O)[C@@H]1O)[C@H](O)[C@H](O)[C@@H]1C[C@H](O)[C@H](O)[C@@H]([C@H](O)[C@@H](O)/C=C/CCCCCCCC/C=C/C=C/Cl)O1 [KmTx 2]
[1]; 0.1 μg/ml, 6 hr exposure
  survival: survived the full 6 hr exposure
[1]; 0.1 μg/ml, 6 hrs
  histological examination of gills: loss of secondary structure of gill lamellae and sloughing of gill epithelial tissue
[1]; 0.5 μg/ml
  histological examination of gills: Severe necrosis and degeneration of gill tissue
  time to death, all fish: < 1 h
[2]
  Minimal inhibitory concentration (MIC): 16 µg/mL (≈ 11.9 µM)
[3]; 1 μg/ml, after 24 hours
  reduction of O. marina cell densities: > 90%
[3]; 0.5 and 1 μg/ml treatments at 1 hour
  cell lysis of O. marina: significant (P<0.05) cell lysis
[3]; after 1 hour, all KmTx 2 concentrations, O. marina compared to K. micrum exposed cultures
  hemolytic activity remaining in solution: reduced
[4]
  [Ca^2+]i in cardiac myocyte: dramatically elevated
